Measurements reported in paper PMC11786100, “Chronic GIPR agonism results in pancreatic islet GIPR functional desensitisation” (Molecular Metabolism, 2025).
Like-named read-outs stand apart in the source and are kept apart here.

Tests used:
[1] = Peptide stability in complete medium with dispersed islet cells (cAMP bioactivity assay); assay type: in vitro ADME, mouse
Protocol: AD-293 cells were added to a 12-well plate and maintained in 2 ml complete DMEM. 1 μg of specified plasmid DNA was added to each well alongside Lipofectamine 2000 (Thermo Fisher, UK). cAMP production was quantified 24 hours following transfection using homogenous time resolved fluorescence (HTRF), specifically the cAMP-Gs Dynamic 2 kit (Cisbio, France). Peptides and cells were diluted in DMEM + 1% P/S + 0.1% BSA. For peptide stability testing, cells, fresh peptide and peptide incubated with dispersed islet cells were diluted in RPMI-1640 (Thermo Fisher, UK) + 10% FBS + 1% P/S. 10 μl of peptide and 10 μl of cell suspension were added in duplicate to an opaque 96-well plate (Grenier Bio-One, Austria) and incubated at 37°C for 30 minutes. 10 μl of cAMP-d2 and anti-cAMP cryptate, both diluted in lysis buffer, were added in quick succession as per the manufacturer’s protocol. The plates were then incubated at room temperature for 45 minutes and read using the SpectraMax i3x (Molecular Devices, US).
Three-parameter curve fitting was applied.

[2] = system: murine hypothalamic neurons; assay: cADDis cAMP imaging in primary hypothalamic neurons; assay type: cell-based, mouse; details: 100 nM and 1 μM, 5-minute stimulation, n=4
Protocol: (§1) Primary cultures of mouse hypothalamic neurons and dispersed pancreatic islets were transduced with the Green Up cADDis biosensor (Montana Molecular, US). Pancreatic islets from CAMPER^Pdx−1-CreERT2 and CAMPER^Som-Cre mice were not transduced. Cells were pre-treated with peptides as specified, dissolved in culture media. Following 4 h or overnight incubation and a 1-hour washout period, cells were imaged using an epifluorescence microscope at baseline (t = 3 min), following peptide addition (t = 10 min, unless specified otherwise), and following 3-isobutyl-1-methylxanthine (IBMX) (500 μM) and forskolin (FSK) (50 μM) addition (t = 3 min) to maximally stimulate the sensor. In pre-treatment experiments, islet cell fluorescence was normalised to the IBMX/FSK response which was set as 100%. In non-pre-treatment experiments, islet and neuronal cell fluorescence was normalised to both the baseline and IBMX/FSK response. The area-under-the-curve (AUC) for each cell was quantified. Full details of isolation, transduction, plating, imaging and image analysis is provided in the supplementary methods.
Primary cultures of hypothalamic neurons were prepared from 6-week-old male and female mice as described previously [2*]. A minor difference was that the neuronal pellet was resuspended in Neurobasal-A medium containing 0.25% Glutamax, 2% B27 and 25 ng/ml NGF (all Thermo Fisher, UK) (neuronal culture media).
Hypothalamic neurons: 100 μL cell suspension of neurons in neuronal culture media was seeded on 35 mm petri dish (MatTek Corporation), pre-coated with 0.01% poly-D-lysine hydrobromide. […]
cAMP quantification from the raw islet/neuronal images was performed using Fiji v1.54f (NIH). […] The fluorescence intensity of each ROI was measured at each time point. In pre-treatment experiments, islet cell fluorescence was normalised to the maximal IBMX/FSK response which was set as 100%. For non-pre-treatment experiments, neuronal and islet cell fluorescence were normalised to both the baseline and maximal IBMX/FSK response. The AUC during peptide stimulation for each cell was quantified. […]

[3] = system: HFD-induced obese mice; assay: Acute fast-refeed food intake study; assay type: in vivo, mouse; details: 200 nmol/kg; vehicle and GIP108 (30 nmol/kg) pre-treated HFD-induced obese mice; n = 37–40
Protocol: (§2) In all in vivo studies, mice were randomised by body weight into groups. Mice received a 50 μL subcutaneous injection of saline (0.9% sodium chloride) or peptide at a specified dose, diluted in saline. Peptide dosing was in nmol per kg of total body weight. For the assessment of the chronic effects of GIP108, mice were injected daily for 15 days. Body composition was measured by EchoMRI on day −1 and day 15. An intraperitoneal glucose tolerance test (IPGTT) (2 g/kg) was conducted on day 14, following 6 h of fasting and 2 h after peptide injection. Non-fasting plasma leptin (ab199082, Abcam, UK), adiponectin (ab226900, Abcam, UK) and amino acids (ab65347, Abcam, UK) were measured on day 16. For the assessments of in vivo GIPR desensitisation, mice were injected at 17:00 with vehicle or GIP108 (30 nmol/kg) prior to an acute food intake study/IPGTT/insulin bleeds conducted the following day. Full details of the in vivo studies are provided in the supplementary methods.
Food intake was measured at t=30, t=60, t=120 and t=240 mins.

[4] = system: lean and HFD-induced obese mice; assay: In vivo GIPR desensitisation: IPGTT and insulin bleeds; design: species or system mouse
Protocol: as §2
Mice were fasted at 08:00. For all studies, 20% glucose was administered at 14:00, with the injection volume adjusted to the body weight of the mouse such that each mouse received glucose at 2 g/kg. To assess effects of GIP108 on day 14 of the chronic study, mice were dosed with saline or GIP108 at a specified dose at 12:00. […] Blood glucose measurements were taken via tail vein venesection at baseline, t=15, t=30, t=60, t=90 and t=120 mins. Glucose AUC is calculated using y=0. Glucose readings were measured in mmol/L using the same GlucoRx glucometer.
Mice were fasted at 08:00. At 14:00, mice received an intraperitoneal injection with 20% glucose, with the injection volume adjusted to the body weight of the mouse such that each mouse received glucose at 2 g/kg. […] Blood samples were taken via tail vein venesection at baseline and t=15 minutes following injection.
Leptin, adiponectin and amino acids were quantified following chronic GIP108 administration. Plasma amino acids were measured using the Abcam L-amino acid assay kit (ab65347, Abcam, UK). Plasma adiponectin was measured using the Abcam mouse adiponectin ELISA kit (ab226900, Abcam, UK). Plasma leptin was measured using the Abcam mouse leptin ELISA kit (ab199082, Abcam, UK). All assays were performed according to the manufacturer’s protocol and were read using the SpectraMax i3x Microplate Reader (Molecular Devices, US).

[5] = system: dispersed islet cells; assay: cADDis cAMP concentration-response in dispersed islets; assay type: cell-based, mouse; details: three-parameter fit, n=5, read-out: calculated EC50, cAMP in dispersed islets
Protocol: as §1
Dispersed islets: A cell suspension of dispersed islets in RPMI-1640 + 10% FBS + 1% P/S (islet complete media) was seeded onto square 96 well µ-plates (Ibidi, UK), coated with 0.01% poly-D-lysine hydrobromide (Sigma-Aldrich, UK) and 25 µg/ml mouse laminin (Thermo Fisher, UK). For cADDis experiments, cells were transduced with the Green Up cADDis biosensor (15 μL of cADDis, 1.5 μL of sodium butyrate per well: Montana Molecular, US). Cells were incubated overnight (37°C, 95%:5% O2:CO2 ratio).
Cells were imaged in Krebs buffer with 6 mM glucose and 0.1% BSA (unless 10% FBS was specified) at 37°C using an automated epifluorescence microscope (modified Nikon Ti-2E with LED illumination). Multiple fields of view (FOV) were imaged in parallel (for islets, multiple wells of a 96 well plate were imaged in parallel), allowing hundreds to thousands of cells to be imaged every minute throughout the time course. For all acquisitions, the first three minutes were baseline recording pre-peptide addition and the last three minutes were a positive control following IBMX (500 μM) and forskolin (50 μM) addition to maximally stimulate the sensor.
cAMP quantification from the raw islet/neuronal images was performed using Fiji v1.54f (NIH). For each acquisition, a flat-field (BaSiC [3*]) correction was applied, and intensity thresholding enabled cell-containing regions to be identified as regions-of-interest (ROIs). The fluorescence intensity of each ROI was measured at each time point. In pre-treatment experiments, islet cell fluorescence was normalised to the maximal IBMX/FSK response which was set as 100%. For non-pre-treatment experiments, neuronal and islet cell fluorescence were normalised to both the baseline and maximal IBMX/FSK response. The AUC during peptide stimulation for each cell was quantified. Neurons with an AUC greater than 75 (representing a response 15 % of the maximum IBMX/FSK response) were deemed responder neurons.
We aimed to determine appropriate pre-treatment doses of GIPR agonists which would produce detectable cAMP responses, indicating target engagement, and were compatible with an extended incubation in complete medium, which could influence ligand availability via binding to serum proteins. We first performed concentration-response analysis in dispersed islets transduced with cADDis in the presence of 10% FBS (Figure S2A, B, D, E).
To determine a sensible re-challenge dose of GIPR agonists, a further concentration-response analysis was conducted in cADDis-transduced dispersed islets in imaging buffer (Krebs buffer + 6 mM glucose + 0.1% BSA, i.e. without FBS) (Figure S2C, F). […] Therefore, 1 μM of GIP108 and 100 nM of GIP were chosen as peri-maximal re-stimulation doses for the remaining islet cAMP assays.
GLP-1R agonist pre-treatment dose selection was performed concurrently with GIPR agonist dose selection.

[6] = 1 μM in complete medium with dispersed islet cells, cAMP bioactivity in mouse GIPR AD-293 cells

For `CCCCCCCCCCCCCCCC(=O)N[C@@H](CCC(=O)NCCCC[C@H](NC(=O)[C@H](C)NC(=O)[C@H](C)NC(=O)[C@H](CCC(N)=O)NC(=O)CNC(=O)[C@H](CCC(=O)O)NC(=O)[C@H](CC(C)C)NC(=O)[C@H](Cc1ccc(O)cc1)NC(=O)[C@H](CO)NC(=O)[C@H](CO)NC(=O)[C@@H](NC(=O)[C@H](CC(=O)O)NC(=O)[C@H](CO)NC(=O)[C@@H](NC(=O)[C@H](Cc1ccccc1)NC(=O)[C@@H](NC(=O)CNC(=O)[C@H](CCC(=O)O)NC(=O)[C@H](C)NC(=O)[C@@H](N)Cc1cnc[nH]1)[C@@H](C)O)[C@@H](C)O)C(C)C)C(=O)N[C@@H](CCC(=O)O)C(=O)N[C@@H](Cc1ccccc1)C(=O)N[C@H](C(=O)N[C@@H](C)C(=O)N[C@@H](Cc1c[nH]c2ccccc12)C(=O)N[C@@H](CC(C)C)C(=O)N[C@H](C(=O)N[C@@H](CCCNC(=N)N)C(=O)NCC(=O)N[C@@H](CCCNC(=N)N)C(=O)NCC(=O)O)C(C)C)[C@@H](C)CC)C(=O)O` [liraglutide], the “concentration remaining from 0.5 nM after 24 hours” value [1] was 0.12 nM and the “concentration remaining from 5 nM after 24 hours” value [1] was 0.97 nM.

With human GIP(1–42) [hGIP] the “cAMP response of hypothalamic neurons” value [2] was “failed to show detectable responses”, the “stability at 4 hours” value [1, 6] was “remained stable at 4 hours” and the “stability at 24 hours” value [1, 6] was “not 24 hours”. The “food intake, acute fast-refeed study” value [3] was “modest reductions in food intake”, the “glucose tolerance during IPGTT” value ([4]; hGIP 50 nmol/kg with i.p. glucose, lean and HFD-induced obese mice given s.c. vehicle 21 h prior, n = 14–16) was “significantly improved glucose tolerance” and the “glucose tolerance during IPGTT” value ([4]; hGIP 500 nmol/kg, lean and obese mice pre-treated with GIP108 (30 nmol/kg), n=6-8) was “still able to improve glucose tolerance”. The EC50 ([5]; imaging buffer (Krebs buffer + 6 mM glucose + 0.1% BSA, without FBS)) was 6.37 nM and the EC50 ([5]; in the presence of 10% FBS, stepwise addition) was 69.4 nM.
